Experimental findings from patent publication US6444677B2, “5-membered heteroaryl substituted 1,4-dihydropyridine compounds as bradykinin antagonists” (Pfizer Inc., priority 1999, dated 2002) are described below.

The structures appear in SMILES notation. Where a name gives a salt, the structure may show the parent alone.

As usually defined, the melting point is the temperature of the solid-liquid transition. As for `CCNCC(C)(C)CN1CCN(C(=O)CC2=C(C(=O)OC)C(c3c(Cl)cccc3Cl)C(C(=O)OC)=C(CCc3nccs3)N2)CC1` (stereo not shown) [Example 19, Dimethyl 4-(2,6-dichlorophenyl)-2-[2-[4-[3-(ethylamino)-2,2-dimethylpropyl]-1-piperazinyl]-2-oxoethyl]-6-[2-(1,3-thiazol-2-yl)ethyl]-1,4-dihydro-3,5-pyridinedicarboxylate], the melting point was 154 to 157 °C.
In the case of `COC(=O)C1=C(CCc2nccs2)NC(CC(=O)N2CCN(C3CCC(N4CCCC4=O)CC3)CC2)=C(C(=O)OC)C1c1c(Cl)cccc1Cl` (stereo not shown) (as salt: HCl) [Example 23, Dimethyl 4-(2,6-dichlorophenyl)-2-[2-oxo-2-[4-[4-(2-oxo-1-pyrrolidinyl)cyclohexyl]-1-piperazinyl]ethyl]-6-[2-(1,3-thiazol-2-yl)ethyl]-1,4-dihydro-3,5-pyridinedicarboxylate] it was 182 to 184 °C (dec.).
The result for `COC(=O)C1=C(CCc2nccs2)NC(CC(=O)N2CCN(CCCCN3CCOCC3)CC2)=C(C(=O)OC)C1c1c(Cl)cccc1Cl` (stereo not shown) (as salt: HCl) [Example 38, Dimethyl 4-(2,6-dichlorophenyl)-2-[2-[4-[4-(4-morpholinyl)butyl]-1-piperazinyl]-2-oxoethyl]-6-[2-(1,3-thiazol-2-yl)ethyl]-1,4-dihydro-3,5-pyridinedicarboxylate] reads 169 to 177 °C (dec.); that for `COC(=O)C1=C(CCc2nccs2)NC(CC(=O)N2CCN(CCCN3C(=O)CCC3C)CC2)=C(C(=O)OC)C1c1c(Cl)cccc1Cl` (stereo not shown) (as salt: HCl) [Example 29, Dimethyl 4-(2,6-dichlorophenyl)-2-[2-[4-[3-(2-methyl-5-oxo1-pyrrolidinyl)propyl]-1-piperazinyl]-2-oxoethyl]-6-[2-(1,3-thiazol-2-yl)ethyl]-1,4-dihydro-3,5-pyridinedicarboxylate], 188 to 193 °C (dec.).
